According to US20080200441A1, “ESTROGEN RECEPTOR MODULATORS ASSOCIATED PHARMACEUTICAL COMPOSITIONS AND METHODS OF USE” (University of Southern California, priority 2007, published 2008):

Tests used:
MCF-7 cells = assay: MCF-7 cell proliferation, MTT; format: cell-based, human; settings: 3 days, serially diluted concentrations, MTT at 570 nm
[1] = system: rat primary hippocampal neurons; assay: Intracellular calcium imaging in hippocampal neurons; format: cell-based
Protocol: The [Ca^2+]i in hippocampal neurons was measured by ratiometric Ca^2+ imaging with the Ca^2+-sensitive fluorescent dye fura-2. Prior to imaging, hippocampal neurons were loaded with 2 μM fura-2 acetoxymethyl ester (fura-2 AM, Molecular Probes, Inc., Eugene, Oreg.) for 30-45 min at 37° C. in HEPES-Buffered Solution (HBS), containing (in mM): 100 NaCl, 2.0 KCl, 1.0 CaCl2, 1.0 MgCl2, 1.0 NaH2PO4, 4.2 NaHCO3, 12.5 HEPES and 10.0 glucose. Excess fura-2 AM dye was removed by washing with HBS and then the neurons were incubated in HBS for 30 min at 37° C. to equilibrate. The coverslip with fura-2 AM-loaded neurons was removed and attached to the coverslip clamp chamber MS-502S (ALA Scientific Instruments, Westbury, N.Y.) for the Ca^2+ imaging analysis. Neurons were placed on the stage of an inverted microscope (MT-2, Olympus) equipped with epifluorescence optics (20× Nikon), The perfusion solution is HBS and the perfusion system connected to the perfusion chamber was balanced using two variable speed pumps. Imaging was performed at room temperature. Neurons were perfused at a flow rate of 2 ml/min. Fura-2 was excited by a xenon light source at 340 and 380 nm. The emitted fluorescence was filtered through a 520 nm filter, captured with an intensified CCD camera (COHU) and analyzed with InCyt Im2 software (Intracellular Imaging, Cincinnati, Ohio). The concentration of Ca^2+ was calculated by comparing the ratio of fluorescence at 340 and 380 nm against a standard curve of known [Ca^2+].

[2] = system: rat primary hippocampal neurons; settings: previous reports; cited from earlier work
Bcl-2 [3] = settings: previously observed; cited from earlier work
Bcl-XL = settings: previously observed; cited from earlier work
spinophilin [4] = settings: primary neurons, earlier findings; cited from earlier work
Bcl-2 [5] = assay: Bcl-2 expression, Western immunoblotting
ERK2 = assay: ERK phosphorylation, Western immunoblotting; settings: primary hippocampal neurons
full-length human ERα = molecular target: T1, full-length human ERα (Homo sapiens, UniProt P03372); assay: Fluorescence polarization-based competitive binding assay, ERα
T1 sequence (P03372 1-595): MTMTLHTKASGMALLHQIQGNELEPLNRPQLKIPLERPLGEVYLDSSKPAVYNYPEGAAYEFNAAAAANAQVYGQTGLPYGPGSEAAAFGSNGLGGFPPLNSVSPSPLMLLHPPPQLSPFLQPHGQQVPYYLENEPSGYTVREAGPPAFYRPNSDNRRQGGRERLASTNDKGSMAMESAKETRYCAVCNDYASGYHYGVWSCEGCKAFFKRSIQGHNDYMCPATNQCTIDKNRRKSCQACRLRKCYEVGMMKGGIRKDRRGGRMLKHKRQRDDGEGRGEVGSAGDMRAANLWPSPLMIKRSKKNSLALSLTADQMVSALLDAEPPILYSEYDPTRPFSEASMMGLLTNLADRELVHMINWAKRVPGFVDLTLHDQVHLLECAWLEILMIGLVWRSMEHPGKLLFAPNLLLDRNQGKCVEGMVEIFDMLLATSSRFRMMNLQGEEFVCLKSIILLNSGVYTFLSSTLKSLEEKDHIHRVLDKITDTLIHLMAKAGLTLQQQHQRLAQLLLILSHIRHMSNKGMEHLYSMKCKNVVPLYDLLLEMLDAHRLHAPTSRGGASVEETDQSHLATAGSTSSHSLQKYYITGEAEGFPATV

full-length human ERβ = full-length human ERβ (Homo sapiens, UniProt Q92731); assay: Fluorescence polarization-based competitive binding assay, ERβ
[6] = system: rat primary hippocampal neurons; assay: Neuroprotection against glutamate-induced neurotoxicity, LDH release; format: cell-based
[7] = system: rat primary hippocampal neurons; assay: Neuroprotection against glutamate-induced neurotoxicity, calcein AM staining; format: cell-based
Description: The combined use of Calcein AM and Ethidium Homodimer-1 (Molecular Probes, Inc., Eugene, Oreg.) provides a two-color fluorescence analysis that allows simultaneous determination of live and dead cells with two probes that measure two recognized parameters of cell viability respectively, intracellular esterase activity and plasma membrane integrity. Calcein AM is a fluorogenic esterase substrate that enters the live cells through permeability and is enzymatically hydrolyzed to form the polyanionic dye calcein, which is well retained within live cells due to the intact plasma membranes and produces an intense uniform green fluorescence at 530 nm. Ethidium homodimer is excluded from live cells and only able to enter cells through compromised plasma membranes and binds to nucleic acid by intercalating between the base pairs, producing a bright red fluorescence at 645 nm. Therefore, Calcein AM and ethidium homodimer serve as two indicators for the identification of live and dead cells respectively.
Cultures were rinsed with phosphate-buffered saline (PBS) and incubated with the combined 1 μM calcein AM and 2 μM ethidium homodimer PBS solution at room temperature for 30 min. The fluorescence intensities were measured on a SpectraMax GEMINI EM dual-wavelength-scanning microplate spectrofluometer (Molecular Devices Corp., Sunnyvale, Calif.) using appropriate excitation and emission filter combinations (485/530 nm for calcein AM and 530/645 nm for ethidium homodimer).

spinophilin [8] = assay: Spinophilin expression in hippocampal neurons; settings: 100 nM, 48 h

full-length human ERβ, sequence (Q92731 whole entry): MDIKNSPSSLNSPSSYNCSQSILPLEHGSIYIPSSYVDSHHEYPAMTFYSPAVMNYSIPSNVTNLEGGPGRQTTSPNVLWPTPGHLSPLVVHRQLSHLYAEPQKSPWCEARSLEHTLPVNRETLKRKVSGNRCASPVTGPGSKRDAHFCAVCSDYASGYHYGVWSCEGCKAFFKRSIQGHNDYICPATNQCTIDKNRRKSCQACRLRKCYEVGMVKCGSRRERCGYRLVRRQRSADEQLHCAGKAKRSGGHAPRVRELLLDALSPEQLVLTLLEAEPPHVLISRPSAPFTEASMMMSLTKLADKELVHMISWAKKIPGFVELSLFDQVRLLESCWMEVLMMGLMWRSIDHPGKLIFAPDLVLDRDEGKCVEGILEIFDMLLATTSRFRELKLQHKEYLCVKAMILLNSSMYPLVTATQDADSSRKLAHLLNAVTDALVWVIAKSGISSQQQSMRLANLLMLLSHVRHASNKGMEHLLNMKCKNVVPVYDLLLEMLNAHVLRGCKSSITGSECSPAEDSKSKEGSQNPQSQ

SMILES: C[C@]12CCC3c4ccc(O)cc4CC(CCCCCCCCC[S+]([O-])CCCC(F)(F)C(F)(F)F)C3C1CC[C@@H]2O (some centres unmarked) [ICI 182,780]
- MCF-7 cell proliferation (MCF-7 cells): promoted MCF-7 cell proliferation in a concentration dependent manner
- intracellular calcium rise ([1]; compound alone): directly induce intracellular calcium rise
- physiological glutamate-induced rise in calcium ion concentration ([1]; physiological glutamate): potentiates the physiological glutamate-induced rise in calcium ion concentration
- excitotoxic glutamate-induced rise in intracellular calcium ([1]; pretreated neurons, excitotoxic glutamate): attenuation of the glutamate-induced rise in intracellular calcium
- concentration of maximal neuroprotection [2]: 10 nM
- Bcl-2 expression (Bcl-2 [3]): Upregulation
- Bcl-XL expression (Bcl-XL): Upregulation
- spinophilin expression (spinophilin [4]): comparably effective to 17β-estradiol in upregulating spinophilin expression
- expression of antiapoptotic protein Bcl-2 (Bcl-2 [5]; primary hippocampal neurons): potentiate the expression of antiapoptotic protein Bcl-2
- phosphorylation of ERK (ERK2): activate the phosphorylation of ERK

SMILES: CC(C)CCC[C@@H](C)CCC[C@@H](C)CCC[C@@H]1Cc2cc(O)ccc2C2CC[C@@]3(C)C(CC[C@@H]3O)C21 (stereo partly drawn) [NS1, 7α-[(4R,8R)-4,8,12-trimethyltridecyl]estra-1,3,5-trien-3,17β-diol]
- IC50 (full-length human ERα): 193 nM
- IC50 (full-length human ERβ; competition with EL Red): 267 nM
- less potency than 17β-estradiol and ICI 182,780 in neuroprotection [6]: 10 fold
- increase in neuronal membrane integrity compared with glutamate alone (LDH release) ([6]; 1 nM): 38.6±3.8%
- increase in neuronal membrane integrity compared with glutamate alone (LDH release) ([6]; 10 nM): 44.1±3.8%
- increase in neuronal membrane integrity compared with glutamate alone (LDH release) ([6]; 100 nM): 67.0±4.0%
- increase in neuronal membrane integrity compared with glutamate alone (LDH release) ([6]; 1000 nM): 59.1±3.7%
- increase in neuronal metabolic viability compared with glutamate alone (calcein AM) ([7]; 1 nM): 2.7±3.2%
- increase in neuronal metabolic viability compared with glutamate alone (calcein AM) ([7]; 10 nM): 9.3±3.7%
- increase in neuronal metabolic viability compared with glutamate alone (calcein AM) ([7]; 100 nM): 28.4±3.2%
- increase in neuronal metabolic viability compared with glutamate alone (calcein AM) ([7]; 1000 nM): 25.6±4.4%
- MCF-7 cell proliferation (MCF-7 cells): does not induce MCF-7 cell proliferation
- increase in Bcl-2 expression compared to vehicle (Bcl-2 [5]; 100 nM, 48 h): 23.4±6.8%
- increase in spinophilin expression compared to vehicle (spinophilin [8]): 61.7±8.2%

SMILES: CC(=O)[C@H]1CC[C@H]2[C@@H]3CCC4=CC(=O)CC[C@]4(C)[C@H]3CC[C@]12C [progesterone, reference compound]
- binding to ERα (full-length human ERα; negative control): does not bind
- binding to ERβ (full-length human ERβ; negative control): does not bind
